Source: article PMC6598759, “In vitro genotoxicity of nitroimidazoles as a tool in the search of new trypanocidal agents” (Memórias do Instituto Oswaldo Cruz, 2019)
Several values for one entry are separate records, joined by “and”; a condition that tells them apart may be missing. Equal entries are not always repeated.

Key:
[1] = test system: whole human blood cells (WHBC); experiment: Cytotoxicity assay (FDA/EtBr) in whole human blood cells; conditions: for percentage decrease in cell viability: 2 h, 37 °C; for lethality variation range: 2 h at 37 °C, compared to solvent-control
Protocol: In vitro treatment and cytotoxicity assay in whole human blood cells (WHBC) - Heparinised WHBC was obtained by venipuncture from healthy young non-smoking volunteers with no known recent exposures to genotoxic chemicals or radiation immediately before the assays. […] The cytotoxicity assay aims to establish the degree of cell viability after treatment with nitroimidazoles to define the ranges concentrations to be tested in the in vitro CA. Cell viability was determined at the end of the treatment using the fluorescein diacetate (FDA)/ethidium bromide (EtBr)-assay, in which viable cells are labelled in green, while dead ones display orange-stained nuclei. WHBC (50 μL) was mixed with an equal volume of the freshly prepared staining solution consisting of 30 μg/mL FDA plus 8 μg/mL EtBr in phosphate-buffered saline (PBS). Samples (50 μL) were spread on a microscope slide and covered with a coverslip and observed using a fluorescence microscope. Two hundred cells were analysed for each treatment.[32] The research project involving the use of human blood samples was approved by the Committee on Ethics in Research with Human Beings - CEP Fiocruz/IOC (CAAE: 41684815.3.0000.5248) under the consolidated opinion of CEP No. 1066061.

[2] = test system: bloodstream trypomastigotes form Y strain of T. cruzi; experiment: In vitro trypanocidal assay; format: cell-based; conditions: Trypanosoma cruzi, read-out: IC50/24 h (concentration that produces 50% lysis of the parasites), trypomastigote forms, 37 °C
Protocol: In vitro trypanocidal assay - To accomplishment of the experiments were used bloodstream trypomastigotes form Y strain of T. cruzi, obtained at the peak of the parasitemia (7th day after infection) of infected Swiss albino mice.[34] The trypomastigotes underwent a differential centrifugation process for the separation of erythrocytes, leukocytes and concentration of the parasites in the plasma, and the purified parasites were resuspended in RPMI medium and cell concentration was determined by counting in the Neubauer chamber. Stock solution of each compound was prepared in dimethyl sulfoxide (DMSO), and the assays were performed in Dulbecco’s modified Eagle medium in 96-well plates. In the first well was placed twice the highest desired concentration of each compound, in a final volume of 200 μL, in the following wells were added 100 μL of medium supplemented with 10% foetal bovine serum (FBS) and 2% L-glutamine. Subsequently, 100 μL of parasite suspension (10^6 trypomastigotes) were added, resulting in a final concentration of 5 x 10^6 parasites/mL, incubated for 24 h at 37 °C under a 5% CO2 atmosphere and quantified in Neubauer’s chamber by light microscopy. […] At least four independent experiments were performed and the mean and standard deviation were calculated. Benznidazole (1) was used as a reference drug. The experiments were performed in accordance with the guidelines established by the Oswaldo Cruz Foundation Committee of Ethics for the Use of Animals (L 038/2018).

[3] = test system: Salmonella typhimurium; conditions: cited from earlier work
[4] = test system: whole human blood cells (WHBC); experiment: In vitro alkaline comet assay (CA) in whole human blood cells; format: cell-based
Protocol: Methyl methane-sulfonate (MMS) (160 μM) (Sigma-Aldrich) was used as a positive control. […] Slides were prepared, lysed (pH 10; 4-5 °C) and processed as described earlier,[32] using a time of alkali denaturation of 20 min and electrophoresis (0.86 V/cm and 300 mA) of 20 min at a pH > 13. […] The DNA damage was expressed as percentage of cells into four classes and as arbitrary units (AU) according to the formula: AU = (0 […] 3), where n = the number of cells analysed in each class. The total DNA damage score in AU (TAU) for 200 cells can range from 0 TAU (200 undamaged cells) to 600 TAU (all cells maximally damaged).

[5] = test system: whole human blood cells (WHBC); experiment: In vitro cytokinesis-block micronucleus assay (CBMN) with whole human blood cells; conditions: for MN formation compared to solvent-control: concentration range analysed; for result in the CBMN: overall call; for MNC in 2,000 BNC: positive control
Protocol: In vitro cytokinesis-block micronucleus assay (CBMN) with whole human blood cells (WHBC) - Heparinised WHBC samples were obtained by venipuncture from volunteers as described above. […] WHBC cultures exposed to mitomycin C (MMC) (1.0 µg/mL in water) (Bristol, USA) for 2 h or to N-deacetyl-N-methylcolchicine in water (Demecolcine: Sigma-Aldrich) 0.02 µg/mL for 28 h were used as positive control cultures. After the treatment, the WHBC cultures were centrifuged (900 rpm, 10 min) and washed with 5 mL PBS. […] CytB has cytokinesis-block activity leading to the formation of binucleate cells. […] The fixed cell suspension was dropped on a clean glass slide and the slide was air-dried on a heating plate (60 °C). Air-dried slides were stained with 60 µg/mL acridine orange in Sörensen buffer (0.03 M KH2PO4, 0.03 M Na2HPO4) for 3s, then they were embedded in distilled water and covered with a coverslip. MN showing bright green fluorescence were analysed using a fluorescence microscope at 400 X magnification. MN were scored in 2,000 binucleated cells (BNC) for culture and the number of the micronucleate cells (MNC) in 2,000 BNC was determined. Cytotoxicity was measured using the cytokinesis-block proliferation index (CBPI) and the replication index (RI) which were calculated from 500 cells. The CBPI indicates the average number of nuclei per cell, and may be used to calculate cell proliferation. The RI indicates the relative number of cell cycles per cell during the period of exposure to cytoB in treated cultures compared to control cultures and can be used to calculate the % cytostasis. CBPI was calculated according to the formula: CBPI = [(No. mononucleate cells) + (2 x No. binucleate cells) + (3 x No. multinucleate cells)] / N, where N indicates the total number of cells scored. RI (%) was calculated according to the formula:
RI %=((No. binucleate cells) + (2 x No. multinucleate cells)) ÷ (Total number of cells)T/((No. binucleate cells) + (2 x No. multinucleate cells)) ÷ (Total number of cells)C x 100
where T indicates treated cultures and C control cultures
Cytotoxicity was evidenced in the occurrence of reduction in CBPI or RI of cultures treated by test substances when compared to control cultures. The measurement of cytotoxicity was used to select the concentrations of the test substance to be analysed for the presence of MN. […] However, it was adopted in this work as the maximum concentration in CBMN one that induced a proliferation inhibition not exceeding about 50% established by ICH S2 (R1) for lymphocyte cultures.
The chi-square test for trend was performed to analyse if the increase of MNC was concentration-related.[30]

[6] = test system: Chagas disease; conditions: cited from earlier work
[7] = 10,000 μM, relative to solvent-control

Compound: Cn1cnc([N+](=O)[O-])c1-n1cccn1 [Compound 6]
- percentage decrease in cell viability ([1]; 149 µM): 0%
- percentage decrease in cell viability ([1]; 238 µM): 4.0%
- percentage decrease in cell viability ([1]; 382 µM): 0%
- percentage decrease in cell viability ([1]; 610 µM): 0%
- percentage decrease in cell viability ([1]; 1,562 µM): 0%
- percentage decrease in cell viability ([1]; 2,500 µM): 6%
- percentage decrease in cell viability ([1]; 4,000 µM): 0%
- percentage decrease in cell viability ([1]; 6,400 µM): 0%
- lethality variation range ([1]; 149-6,400 µM): 1-4%
- IC50 [2]: > 500 µM
- concentration with cytotoxic activity ([3]; TA98): 50 µg/mL
- concentration with mutagenicity in TA100 ([3]; TA100, absence and presence of S9 mixture, highest tested concentration): 50 µg/mL
- concentration range with cytotoxic activity ([3]; TA100 and TA1535 strains): 1.0 to 50 µg/mL
- result in the in vitro CA [4]: positive
- concentration with significant (p < 0.05) DNA damage ([4]; human, 2 h): 6,400 µM
- cells with class 1 DNA damage ([4]; human, 2 h, 6400 µM): 10.5%
- CBPI ([5]; 150 µM, 4 h): 1.184
- NMNC/2000 binucleated cells ([5]; 150 µM, 4 h): 32
- RI (%) ([5]; 150 µM, 4 h): 148%
- CBPI ([5]; 640 µM, 4 h): 1.204
- NMNC/2000 binucleated cells ([5]; 640 µM, 4 h): 12
- RI (%) ([5]; 640 µM, 4 h): 132%
- CBPI ([5]; 1,600 µM, 4 h): 1.134
- NMNC/2000 binucleated cells ([5]; 1,600 µM, 4 h): 16
- RI (%) ([5]; 1,600 µM, 4 h): 114%
- CBPI ([5]; 4,000 µM, 4 h): 1.068
- NMNC/2000 binucleated cells ([5]; 4,000 µM, 4 h): 12
- RI (%) ([5]; 4,000 µM, 4 h): 56%
- CBPI ([5]; 10,000 µM, 4 h): 1.036
- RI (%) ([5]; 10,000 µM, 4 h): 24%
- maximum concentration used in MN analysis (inducing in the maximum 50% reduction of CBPI or RI) ([5]; 4 h, relative to solvent-control): 4,000 μM
- MN formation compared to solvent-control ([5]; 4 h): did not induce a significant increase in MN formation
- result in the CBMN [5]: negative

Compound: CO[C@@]12[C@H](COC(N)=O)C3=C(C(=O)C(C)=C(N)C3=O)N1C[C@@H]1N[C@@H]12 [MMC, mitomycin C, reference compound]
- MNC in 2,000 BNC ([5]; 1.0 μg/mL, 2 h): 38 and 56 and 40

Compound: O=C(Cn1ccnc1[N+](=O)[O-])NCc1ccccc1 [Benznidazole, benznidazole]
- IC50 [2]: 8.8 ± 1.1 µM
- serological cure ([6]; adults with late chronic infection): 5-20%
- digestive intolerance ([6]; adverse event): 5-15%
- general symptoms such as anorexia, asthenia, headache, and sleep disturbances ([6]; adverse event): 40%
- skin rash ([6]; adverse event): 29-50%
- discontinuation of treatment ([6]; due to adverse events): 9-29%

Compound: CC1CS(=O)(=O)CCN1/N=C/c1ccc([N+](=O)[O-])o1 (centres unmarked) [Nfx, nifurtimox]
- discontinuation of the treatment ([6]; adults with chronic infection): 14-75%
- frequency of adverse effects ([6]; adults with chronic infection): 43.0-97.5%

Compound: CN[C@H]1CCc2cc(OC)c(OC)c(OC)c2-c2ccc(OC)c(=O)cc21 [Demecolcine, N-deacetyl-N-methylcolchicine, reference compound]
- MNC in 2,000 BNC ([5]; 0.02 μg/mL, 28 h): 37 and 42 and 30

Compound: Cn1cnc([N+](=O)[O-])c1Nc1nnc(C(F)(F)F)[nH]1 [Compound 5]
- percentage decrease in cell viability ([1]; 149 µM): 0%
- percentage decrease in cell viability ([1]; 238 µM): 0%
- percentage decrease in cell viability ([1]; 382 µM): 0%
- percentage decrease in cell viability ([1]; 610 µM): 0%
- percentage decrease in cell viability ([1]; 1,562 µM): 0%
- percentage decrease in cell viability ([1]; 2,500 µM): 0%
- percentage decrease in cell viability ([1]; 4,000 µM): 2.0%
- percentage decrease in cell viability ([1]; 6,400 µM): 1.0%
- percentage decrease in cell viability ([1]; 10,000 µM): 2.0%
- lethality variation range ([1]; 149-10,000 µM): 1-4%
- IC50 [2]: > 500 µM
- result in the in vitro CA [4]: positive
- concentrations at which a significant (p < 0.05) genotoxic effect was observed ([4]; human, 2 h): > 610 µM
- CBPI ([5]; 150 µM, 4 h): 1.310
- NMNC/2000 binucleated cells ([5]; 150 µM, 4 h): 20
- RI (%) ([5]; 150 µM, 4 h): 151%
- CBPI ([5]; 640 µM, 4 h): 1.228
- NMNC/2000 binucleated cells ([5]; 640 µM, 4 h): 8
- RI (%) ([5]; 640 µM, 4 h): 111%
- CBPI ([5]; 1,600 µM, 4 h): 1.192
- NMNC/2000 binucleated cells ([5]; 1,600 µM, 4 h): 20
- RI (%) ([5]; 1,600 µM, 4 h): 95%
- CBPI ([5]; 4,000 µM, 4 h): 1.340
- NMNC/2000 binucleated cells ([5]; 4,000 µM, 4 h): 24
- RI (%) ([5]; 4,000 µM, 4 h): 167%
- CBPI ([5]; 10,000 µM, 4 h): 1.152
- NMNC/2000 binucleated cells ([5]; 10,000 µM, 4 h): 36
- RI (%) ([5]; 10,000 µM, 4 h): 78%
- reduction of CBPI [5, 7]: 36%
- reduction of RI [5, 7]: 22%
- MN formation compared to solvent-control ([5]; 4 h): did not induce a significant increase in MN formation
- result in the CBMN [5]: negative

Compound: COS(C)(=O)=O [MMS, Methyl methane-sulfonate, reference compound]
- cells with class 3 DNA damage ([4]; 160 µM): 87.7%
- TAU mean value (total DNA damage score) ([4]; 160 μM, positive control, p < 0.001 vs control): 554.2 ± 9.9 TAU
